In patent US20150313225A1:
Like-named read-outs stand apart in the source and are kept apart here.

What was measured:
Type in all cases: cell-based
Pyricularia oryzae = assay: microbe, parasite or virus in culture; settings: for Observed efficacy: solo product
Leptosphaeria nodorum = assay: Microtest against wheat leaf spots caused by Leptosphaeria nodorum (Leptno); settings: solo product
Botrytis cinerea = assay: Microtiterplate test against the grey mold Botrytis cinerea (Botrci); settings: solo product
Alternaria solani = assay: Microtest against early blight caused by Alternaria solani (Alteso); settings: solo product; for inhibition of growth at […]: 0.063 ppm
Phytophthora infestans = assay: microbe, parasite or virus in culture; settings: for Observed efficacy: solo product
Septoria tritici = assay: Microtest against leaf blotch on wheat caused by Septoria tritici (Septtr); settings: solo product
[1] = Phytophthora infestans, 168 h, read-out: Observed efficacy
[2] = Pyricularia oryzae, 168 h, read-out: Observed efficacy
[3] = Zymoseptoria tritici, 168 h, read-out: Observed efficacy
[4] = Botrytis cinerea, 168 h, 16 ppm, read-out: Observed efficacy
[5] = Alternaria solani, 168 h, 4 ppm, read-out: Observed efficacy
[6] = Alternaria solani, 168 h, 16 ppm, read-out: Observed efficacy
[7] = Botrytis cinerea, 168 h, 0.016 ppm, read-out: Observed efficacy
[8] = Alternaria solani, 168 h, 63 ppm, read-out: Observed efficacy
[9] = Botrytis cinerea, 168 h, 4 ppm, read-out: Observed efficacy
[10] = Alternaria solani, 168 h, 0.004 ppm, read-out: Observed efficacy
[11] = Alternaria solani, 168 h, 0.016 ppm, read-out: Observed efficacy
[12] = Zymoseptoria tritici, 168 h, 0.001 ppm, read-out: Observed efficacy
[13] = Botrytis cinerea, 168 h, 0.063 ppm, read-out: Observed efficacy
[14] = Alternaria solani, 168 h, 0.001 ppm, read-out: Observed efficacy
[15] = Alternaria solani, 168 h, read-out: Observed efficacy
[16] = Botrytis cinerea, 168 h, read-out: Observed efficacy
[17] = Parastagonospora nodorum, 168 h, read-out: Observed efficacy
[18] = Parastagonospora nodorum, 168 h, 0.016 ppm, read-out: Observed efficacy
[19] = Botrytis cinerea, 168 h, 0.25 ppm, read-out: Observed efficacy

Cc1ccc(C(C)NC(=O)[C@@H](NC(=O)OC(C)C)C(C)C)cc1 (stereo partly drawn) [II-51, iprovalicarb, reference compound]
Observed efficacy (Pyricularia oryzae; 4 ppm): 0 | Observed efficacy (Leptosphaeria nodorum; 16 ppm): 19 | Observed efficacy (Botrytis cinerea; 4 ppm): 2 | Observed efficacy (Botrytis cinerea; 16 ppm): 3 | Observed efficacy (Botrytis cinerea; 63 ppm): 6 | Observed efficacy (Alternaria solani; 4 ppm): 1 | Observed efficacy (Alternaria solani; 16 ppm): 2 | Observed efficacy (Alternaria solani; 63 ppm): 1

Cc1ccc(-c2c(Cl)nc(C#N)n2S(=O)(=O)N(C)C)cc1 [II-12, cyazofamid, reference compound]
inhibition of growth at 0.004 ppm (Phytophthora infestans; [1]): 8% | inhibition of growth at 4 ppm (Pyricularia oryzae; [2]): 9% | inhibition of growth at 16 ppm (Septoria tritici; [3]): 40% | inhibition of growth at 16 ppm (Botrytis cinerea; [4]): 24% | inhibition of growth at 4 ppm (Alternaria solani; [5]): 14% | inhibition of growth at 16 ppm (Alternaria solani; [6]): 35%

COC(=O)Nc1nc2ccccc2[nH]1 [II-8, carbendazim, reference compound]
inhibition of growth at 16 ppm (Septoria tritici; [3]): 16% | inhibition of growth at 0.004 ppm (Botrytis cinerea; Botrytis cinerea, 168 h, 0.004 ppm, read-out: Observed efficacy): 5% | inhibition of growth at 0.016 ppm (Botrytis cinerea; [7]): 3% | inhibition of growth at 4 ppm (Alternaria solani; [5]): 7% | inhibition of growth at 16 ppm (Alternaria solani; [6]): 10% | inhibition of growth at 63 ppm (Alternaria solani; [8]): 34%

CON=C(C(=O)OC)c1ccccc1CON=C(C)c1cccc(C(F)(F)F)c1 [II-92, trifloxystrobin, reference compound]
inhibition of growth at 0.004 ppm (Pyricularia oryzae; [2]): 11% | inhibition of growth at 0.016 ppm (Pyricularia oryzae; [2]): 26% | inhibition of growth at […] (Leptosphaeria nodorum; Parastagonospora nodorum, 168 h, 0.063 ppm, read-out: Observed efficacy): 39% | inhibition of growth at 4 ppm (Botrytis cinerea; [9]): 2% | inhibition of growth at 16 ppm (Botrytis cinerea; [4]): 6% | inhibition of growth at 0.004 ppm (Alternaria solani; [10]): 7% | inhibition of growth at 0.016 ppm (Alternaria solani; [11]): 11%

CO/C=C(/C(=O)OC)c1ccccc1Oc1cc(Oc2ccccc2C#N)ncn1 [II-3, azoxystrobin, reference compound]
Observed efficacy (Phytophthora infestans; 0.016 ppm): 2 | Observed efficacy (Pyricularia oryzae; 0.004 ppm): 1 | Observed efficacy (Septoria tritici; 0.001 ppm): 12 | Observed efficacy (Botrytis cinerea; 4 ppm): 14 | Observed efficacy (Botrytis cinerea; 16 ppm): 23 | Observed efficacy (Alternaria solani; 0.004 ppm): 6 | Observed efficacy (Alternaria solani; 0.016 ppm): 14

CC(C)(C)C(O)(CCc1ccc(Cl)cc1)Cn1cncn1 (stereo not drawn) [Tebuconazol]
Observed efficacy (Phytophthora infestans; 0.016 ppm): 1 | Observed efficacy (Septoria tritici; 0.016 ppm): 5 | Observed efficacy (Botrytis cinerea; 0.016 ppm): 9 | Observed efficacy (Alternaria solani; 0.016 ppm): 8

CC1(C)CC/C(=C\c2ccc(Cl)cc2)C1(O)Cn1cncn1 (stereo not drawn) [Triticonazol]
Observed efficacy (Pyricularia oryzae; 1 ppm): 1 | Observed efficacy (Pyricularia oryzae; 4 ppm): 59

O=c1c2cc(F)ccc2nc(-n2cncn2)n1-c1ccc(Cl)cc1Cl [Fluquinconazol]
Observed efficacy (Phytophthora infestans; 4 ppm): 0

CC(C)C(O)(Cn1cncn1)c1ccc(Oc2ccc(Cl)cc2)cc1Cl (stereo not drawn) [I-19, 2-[2-chloro-4-(4-chlorophenoxy)phenyl]-3-methyl-1-(1,2,4-triazol-1-yl)butan-2-ol]
inhibition of growth at 1.6e-05 ppm (Septoria tritici; Zymoseptoria tritici, 168 h, 0.000016 ppm, read-out: Observed efficacy): 12% | inhibition of growth at 0.001 ppm (Septoria tritici; [12]): 20% | inhibition of growth at 6.3e-05 ppm (Septoria tritici; [3]): 13% | inhibition of growth at […] (Leptosphaeria nodorum; Parastagonospora nodorum, 168 h, 0.25 ppm, read-out: Observed efficacy): 64% | inhibition of growth at 0.016 ppm (Botrytis cinerea; [7]): 20% | inhibition of growth at […] (Botrytis cinerea; [13]): 29% | inhibition of growth at 0.001 ppm (Alternaria solani; [14]): 1% | inhibition of growth at 0.004 ppm (Alternaria solani; [10]): 0% | inhibition of growth at 0.016 ppm (Alternaria solani; [11]): 0% | inhibition of growth at […] (Alternaria solani; [15]): 25%

Cn1cc(C(=O)Nc2ccc(F)cc2-c2ccc(Cl)c(Cl)c2)c(C(F)F)n1 [II-6, bixafen, reference compound]
Observed efficacy (Pyricularia oryzae; 0.016 ppm): 2 | Observed efficacy (Botrytis cinerea; 0.016 ppm): 8 | Observed efficacy (Alternaria solani; 0.001 ppm): 5 | Observed efficacy (Alternaria solani; 0.004 ppm): 38

CC1(C)CCC(Cc2ccc(Cl)cc2)C1(O)Cn1cncn1 (stereo not drawn) [Metconazol]
Observed efficacy (Phytophthora infestans; 0.004 ppm): 2 | Observed efficacy (Pyricularia oryzae; 1 ppm): 58 | Observed efficacy (Septoria tritici; 0.016 ppm): 24 | Observed efficacy (Alternaria solani; 0.016 ppm): 17

CCOC(=O)C1CC(=O)C(=C(O)C2CC2)C(=O)C1 (stereo not drawn) [II-3a, trinexapac-ethyl, reference compound]
inhibition of growth at 4 ppm (Pyricularia oryzae; [2]): 5% | inhibition of growth at 16 ppm (Pyricularia oryzae; [2]): 21% | inhibition of growth at 63 ppm (Pyricularia oryzae; [2]): 81% | inhibition of growth at 4 ppm (Septoria tritici; Zymoseptoria tritici, 168 h, 4 ppm, read-out: Observed efficacy): 13% | inhibition of growth at 4 ppm (Botrytis cinerea; [9]): 7% | inhibition of growth at 16 ppm (Botrytis cinerea; [4]): 5% | inhibition of growth at 63 ppm (Botrytis cinerea; Botrytis cinerea, 168 h, 63 ppm, read-out: Observed efficacy): 15% | inhibition of growth at 4 ppm (Alternaria solani; [5]): 12% | inhibition of growth at 16 ppm (Alternaria solani; [6]): 27%

CO/N=C(/C1=NOCCO1)c1ccccc1Oc1ncnc(Oc2ccccc2Cl)c1F [II-37, fluoxastrobin, reference compound]
inhibition of growth at 0.016 ppm (Phytophthora infestans; [1]): 4% | inhibition of growth at 0.004 ppm (Pyricularia oryzae; [2]): 3% | inhibition of growth at 0.016 ppm (Pyricularia oryzae; [2]): 8% | inhibition of growth at 1 ppm (Botrytis cinerea; [16]): 5% | inhibition of growth at 4 ppm (Botrytis cinerea; [9]): 10% | inhibition of growth at 16 ppm (Botrytis cinerea; [4]): 23% | inhibition of growth at 0.016 ppm (Alternaria solani; [11]): 11% | inhibition of growth at […] (Alternaria solani; [15]): 27%

CCCCCCCCc1c(CC)nc2ncnn2c1N [II-1, ametoctradin, reference compound]
Observed efficacy (Phytophthora infestans; 1 ppm): 75 | Observed efficacy (Botrytis cinerea; 16 ppm): 3 | Observed efficacy (Botrytis cinerea; 63 ppm): 4 | Observed efficacy (Alternaria solani; 4 ppm): 5 | Observed efficacy (Alternaria solani; 16 ppm): 2 | Observed efficacy (Alternaria solani; 63 ppm): 6

CC1COC(Cn2cncn2)(c2ccc(Oc3ccc(Cl)cc3)cc2Cl)O1 (stereo not drawn) [Difenoconazol]
Observed efficacy (Pyricularia oryzae; 1 ppm): 11 | Observed efficacy (Septoria tritici; 0.016 ppm): 26 | Observed efficacy (Leptosphaeria nodorum; 0.016 ppm): 29 | Observed efficacy (Alternaria solani; 0.004 ppm): 5 | Observed efficacy (Alternaria solani; 0.016 ppm): 5

N#Cc1nn(-c2c(Cl)cc(C(F)(F)F)cc2Cl)c(N)c1[S+]([O-])C(F)(F)F (stereo not drawn) [II-20c, fipronil, reference compound]
inhibition of growth at 1 ppm (Phytophthora infestans; [1]): 4% | inhibition of growth at 4 ppm (Pyricularia oryzae; [2]): 1% | inhibition of growth at 16 ppm (Pyricularia oryzae; [2]): 8% | inhibition of growth at 1 ppm (Alternaria solani; Alternaria solani, 168 h, 1 ppm, read-out: Observed efficacy): 6% | inhibition of growth at 4 ppm (Alternaria solani; [5]): 2%

COCC(O)(Cn1cncn1)c1ccc(Oc2ccc(Cl)cc2)cc1Cl (stereo not drawn) [I-26, 2-[2-chloro-4-(4-chlorophenoxy)phenyl]-1-methoxy-3-(1,2,4-triazol-1-yl)propan-2-ol]
inhibition of growth at 0.016 ppm (Pyricularia oryzae; [2]): 0% | inhibition of growth at 1 ppm (Pyricularia oryzae; [2]): 55% | inhibition of growth at 0.001 ppm (Septoria tritici; [12]): 29% | inhibition of growth at 6.3e-05 ppm (Septoria tritici; [3]): 19% | inhibition of growth at 0.001 ppm (Leptosphaeria nodorum; [17]): 9% | inhibition of growth at 0.004 ppm (Leptosphaeria nodorum; [17]): 15% | inhibition of growth at 0.016 ppm (Leptosphaeria nodorum; [18]): 24% | inhibition of growth at […] (Botrytis cinerea; [13]): 44% | inhibition of growth at 0.001 ppm (Alternaria solani; [14]): 5% | inhibition of growth at 0.016 ppm (Alternaria solani; [11]): 4%

CC(C)C1C2CCC1c1c(NC(=O)c3cn(C)nc3C(F)F)cccc12 (stereo not drawn) [II-50, isopyrazam, reference compound]
Observed efficacy (Phytophthora infestans; 16 ppm): 23 | Observed efficacy (Pyricularia oryzae; 0.004 ppm): 1 | Observed efficacy (Botrytis cinerea; 0.016 ppm): 6 | Observed efficacy (Alternaria solani; 0.016 ppm): 15

O=C(Nc1ccccc1-c1ccc(Cl)cc1)c1cccnc1Cl [II-7, boscalid, reference compound]
inhibition of growth at 16 ppm (Pyricularia oryzae; [2]): 2% | inhibition of growth at 4 ppm (Leptosphaeria nodorum; Parastagonospora nodorum, 168 h, 4 ppm, read-out: Observed efficacy): 23% | inhibition of growth at […] (Botrytis cinerea; [19]): 38% | inhibition of growth at 0.001 ppm (Alternaria solani; [14]): 5% | inhibition of growth at 0.004 ppm (Alternaria solani; [10]): 6%

CCN(Cc1ccc(Cl)nc1)/C(=C/[N+](=O)[O-])NC [Nitenpyram]
inhibition of growth at 4 ppm (Pyricularia oryzae; [2]): 1% | inhibition of growth at 16 ppm (Pyricularia oryzae; [2]): 0% | inhibition of growth at 63 ppm (Pyricularia oryzae; [2]): 3% | inhibition of growth at 63 ppm (Septoria tritici; Zymoseptoria tritici, 168 h, 63 ppm, read-out: Observed efficacy): 10% | inhibition of growth at 63 ppm (Leptosphaeria nodorum; Parastagonospora nodorum, 168 h, 63 ppm, read-out: Observed efficacy): 23% | inhibition of growth at 4 ppm (Alternaria solani; [5]): 2% | inhibition of growth at 16 ppm (Alternaria solani; [6]): 2% | inhibition of growth at 63 ppm (Alternaria solani; [8]): 8%

Fc1ccc([C@]2(Cn3cncn3)O[C@H]2c2ccccc2Cl)cc1 [Epoxiconazol]
Observed efficacy (Septoria tritici; 0.016 ppm): 16 | Observed efficacy (Botrytis cinerea; 0.016 ppm): 11 | Observed efficacy (Alternaria solani; 0.004 ppm): 5 | Observed efficacy (Alternaria solani; 0.016 ppm): 8

COC(C)(Cn1cncn1)c1ccc(Oc2ccc(Cl)cc2)cc1Cl (stereo not drawn) [I-20, 1-[2-[2-chloro-4-(4-chlorophenoxy)phenyl]-2-methoxy-propyl]-1,2,4-triazole]
inhibition of growth at 0.016 ppm (Pyricularia oryzae; [2]): 0% | inhibition of growth at 0.001 ppm (Septoria tritici; [12]): 5% | inhibition of growth at 0.001 ppm (Leptosphaeria nodorum; [17]): 5% | inhibition of growth at 0.004 ppm (Leptosphaeria nodorum; [17]): 10% | inhibition of growth at 0.016 ppm (Leptosphaeria nodorum; [18]): 14% | inhibition of growth at […] (Botrytis cinerea; [13]): 16% | inhibition of growth at […] (Botrytis cinerea; [19]): 16% | inhibition of growth at 1 ppm (Botrytis cinerea; [16]): 58% | inhibition of growth at 0.004 ppm (Alternaria solani; [10]): 0% | inhibition of growth at […] (Alternaria solani; [15]): 30%

CCC(=O)C1=C([O-])CC(C(=O)[O-])CC1=O.[Ca+2] (stereo not drawn) [Prohexadion-ca]
Observed efficacy (Pyricularia oryzae; 4 ppm): 2 | Observed efficacy (Pyricularia oryzae; 16 ppm): 2 | Observed efficacy (Pyricularia oryzae; 63 ppm): 3 | Observed efficacy (Septoria tritici; 63 ppm): 15 | Observed efficacy (Botrytis cinerea; 4 ppm): 10 | Observed efficacy (Botrytis cinerea; 16 ppm): 5 | Observed efficacy (Botrytis cinerea; 63 ppm): 4 | Observed efficacy (Alternaria solani; 4 ppm): 6 | Observed efficacy (Alternaria solani; 16 ppm): 2

N#Cc1c[nH]cc1-c1cccc2c1OC(F)(F)O2 [II-34, fludioxonil, reference compound]
inhibition of growth at 0.016 ppm (Pyricularia oryzae; [2]): 36%

Cn1cc(C(=O)Nc2ccccc2-c2cc(F)c(F)c(F)c2)c(C(F)F)n1 [II-42, fluxapyroxad, reference compound]
Observed efficacy (Alternaria solani; 0.001 ppm): 4
